Laboratory results as given in EPA's ToxRefDB 2.

Experiments:
rat [1] = conditions: Multigenerational reproductive toxicity study, sprague dawley, Oral, Feed, dose end: 2 generation
rat [2] = conditions: Prenatal developmental toxicity study, sprague dawley, Oral, Gavage/Intubation, dose end: 15 GD
dog [3] = conditions: Subchronic oral toxicity in nonrodent, beagle, Feed, dose end: 228 day, group: systemic, systemic / pathology microscopic / kidney / eosinophilic focus + systemic / pathology microscopic / kidney / pigmentation + systemic / …
mouse [4] = conditions: Combined chronic toxicity/carcinogenicity, other, Oral, Feed, dose end: 95 week, group: systemic
dog [5] = conditions: Subchronic oral toxicity in nonrodent, beagle, Feed, dose end: 184 day, group: systemic, systemic / clinical chemistry / [other] / [other] + systemic / clinical chemistry / aspartate aminotransferase (ast/sgot) / aspartate …
dog [6] = conditions: Chronic toxicity; beagle; Oral; Feed; dose end: 52 week; group: systemic; systemic / clinical chemistry / creatinine / creatinine + systemic / clinical chemistry / urea nitrogen / urea nitrogen
rat [7] = conditions: Subchronic oral toxicity in rodents, fischer, Feed, dose end: 13 week, group: systemic
mouse [8] = conditions: Combined chronic toxicity/carcinogenicity, cd1, Oral, Feed, dose end: 104 week, group: systemic
dog [9] = conditions: Subchronic oral toxicity in nonrodent, beagle, Capsule, dose end: 26 week, group: systemic
rat [10] = conditions: Multigenerational reproductive toxicity study, wistar, Oral, Feed, dose end: 3 generation
rat [11] = conditions: Combined chronic toxicity/carcinogenicity; sprague dawley; Oral; Feed; dose end: 2 year; group: systemic; systemic / in life observation / body weight / body weight + systemic / in life observation / food consumption / food consumption
rat [12] = conditions: Subchronic oral toxicity in rodents, wistar, [Not Specified], dose end: 13 week, group: systemic
[13] = group: offspring, developmental / developmental malformation / bone / exencephaly + developmental / developmental malformation / eye / ablepharia
[14] = group: offspring, developmental / developmental malformation / bone / exencephaly + developmental / developmental malformation / eye / ablepharia + …
[15] = group: parental, systemic / pathology microscopic / kidney / degeneration
[16] = group: parental, systemic / pathology microscopic / kidney / degeneration + systemic / in life observation / body weight / body weight + systemic / in life …
[17] = group: reproductive, reproductive / offspring survival early / litter size / litter size
[18] = group: developmental, developmental / developmental malformation / bone / brachycephaly + developmental / developmental malformation / bone / delayed ossification…
[19] = group: maternal, systemic / in life observation / clinical signs / [other] + systemic / in life observation / clinical signs / alopecia + systemic / in life …
[20] = systemic / pathology microscopic / kidney / degeneration + systemic / hematology / platelet / platelet + systemic / in life observation / …
[21] = systemic / in life observation / clinical signs / defecation (diarrhea)
[22] = systemic / in life observation / clinical signs / defecation (diarrhea) + systemic / in life observation / clinical signs / headflicking + …
[23] = group: offspring, systemic / in life observation / body weight / offspring (pup) weight + systemic / in life observation / body weight / offspring (pup) …
[24] = group: parental, systemic / in life observation / body weight / body weight + systemic / in life observation / body weight / body weight gain
[25] = group: reproductive, reproductive / offspring survival early / litter size / litter size + reproductive / offspring survival early / birth index / live birth …
[26] = systemic / clinical chemistry / aminopyrine-n-demethylase / aminopyrine-n-demethylase + systemic / in life observation / body weight / body …

O=C(O)COc1nc(Cl)c(Cl)cc1Cl [Triclopyr] was tested, and the LEL (rat [1]; [13]) was 25 mg/kg/day, the LOAEL (rat [1]; [13]) was 25 mg/kg/day and the NEL (rat [1]; [14]) was 2 mg/kg/day. For the same compound, the NOAEL (rat [1]; [14]) was 2 mg/kg/day, the LEL (rat [1]; [15]) was 25 mg/kg/day and the LOAEL (rat [1]; [15]) was 25 mg/kg/day. For the same compound, the NEL (rat [1]; [16]) was 2 mg/kg/day, the NOAEL (rat [1]; [16]) was 2 mg/kg/day and the LEL (rat [1]; [17]) was 250 mg/kg/day. The LOAEL (rat [1]; [17]) was greater than 250 mg/kg/day, the NEL (rat [1]; [17]) was 25 mg/kg/day and the NOAEL (rat [1]; [17]) was no less than 250 mg/kg/day. The LEL (rat [2]; [18]) was 200 mg/kg/day, the LOAEL (rat [2]; [18]) was 200 mg/kg/day and the NEL (rat [2]; [18]) was 100 mg/kg/day. The NOAEL (rat [2]; [18]) was 100 mg/kg/day, the LEL (rat [2]; [19]) was 50 mg/kg/day and the LOAEL (rat [2]; [19]) was 50 mg/kg/day. For the same compound, the NEL (rat [2]; [19]) was less than 50 mg/kg/day, the NOAEL (rat [2]; [19]) was less than 50 mg/kg/day and the LEL (dog [3]) was 5 mg/kg/day. For the same compound, the LOAEL (dog [3]) was 5 mg/kg/day, the NEL (dog [3]) was less than 5 mg/kg/day and the NOAEL (dog [3]) was less than 5 mg/kg/day. For the same compound, the NEL (mouse [4]; systemic / in life observation / body weight / body weight + systemic / urinalysis / protein / protein + systemic / urinalysis / specific …) was 2.5 mg/kg/day, the NOAEL (mouse [4]; systemic / organ weight / kidney / absolute + systemic / organ weight / pituitary gland / absolute) was 12.5 mg/kg/day and the LOAEL (mouse [4]; systemic / organ weight / kidney / absolute + systemic / organ weight / pituitary gland / absolute + systemic / in life observation / body …) was 62.5 mg/kg/day. The LEL (mouse [4]; systemic / urinalysis / protein / protein + systemic / clinical chemistry / urea nitrogen / urea nitrogen + systemic / pathology gross / …) was 12.5 mg/kg/day, the LEL (dog [5]) was 2.5 mg/kg/day and the LOAEL (dog [5]) was 2.5 mg/kg/day. It also gave an NEL (dog [5]) of 0.5 mg/kg/day, an NOAEL (dog [5]) of 0.5 mg/kg/day and an LEL (dog [6]) of 2.5 mg/kg/day. The LOAEL (dog [6]) was 2.5 mg/kg/day, the NEL (dog [6]) was 0.5 mg/kg/day and the NOAEL (dog [6]) was 0.5 mg/kg/day. The LOAEL (rat [7]; systemic / pathology microscopic / kidney / degeneration) was 20 mg/kg/day, the NEL (rat [7]; [20]) was 5 mg/kg/day and the NOAEL (rat [7]; [20]) was 5 mg/kg/day. For the same compound, the LEL (rat [7]; systemic / pathology microscopic / kidney / degeneration + systemic / in life observation / body weight / body weight + systemic / in life …) was 20 mg/kg/day.
CC1(C)C(C=C(Cl)C(F)(F)F)C1C(=O)OC(C#N)c1cccc(Oc2ccccc2)c1 (stereo not drawn) [Cyhalothrin] gave an NEL (mouse [8]; systemic / in life observation / body weight / body weight + systemic / in life observation / body weight / body weight gain + systemic / in…) of 3 mg/kg/day, an NOAEL (mouse [8]; systemic / in life observation / clinical signs / hunched posture + systemic / in life observation / clinical signs / piloerection) of 15 mg/kg/day and an LOAEL (mouse [8]; systemic / in life observation / clinical signs / hunched posture + systemic / in life observation / clinical signs / piloerection + …) of 75 mg/kg/day. The LEL (mouse [8]; systemic / in life observation / clinical signs / piloerection) was 15 mg/kg/day, the LEL (dog [9]; [21]) was 2.5 mg/kg/day and the LOAEL (dog [9]; [21]) was 2.5 mg/kg/day. It also gave an NEL (dog [9]; [22]) of 1 mg/kg/day, an NOAEL (dog [9]; [22]) of 1 mg/kg/day and an LEL (rat [10]; [23]) of 1.5 mg/kg/day. It also gave an LOAEL (rat [10]; [23]) of 5 mg/kg/day, an NEL (rat [10]; [23]) of 0.5 mg/kg/day and an NOAEL (rat [10]; [23]) of 1.5 mg/kg/day. It also gave an LEL (rat [10]; [24]) of 1.5 mg/kg/day, an LOAEL (rat [10]; [24]) of 5 mg/kg/day and an NEL (rat [10]; [24]) of 0.5 mg/kg/day. For the same compound, the NOAEL (rat [10]; [24]) was 1.5 mg/kg/day, the NEL (rat [10]; [17]) was 1.5 mg/kg/day and the LEL (rat [10]; [25]) was 5 mg/kg/day. It also gave an LOAEL (rat [10]; [25]) greater than 5 mg/kg/day, an NOAEL (rat [10]; [25]) of no less than 5 mg/kg/day and an LEL (rat [11]) of 12.5 mg/kg/day. The LOAEL (rat [11]) was 12.5 mg/kg/day, the NEL (rat [11]) was 2.5 mg/kg/day and the NOAEL (rat [11]) was 2.5 mg/kg/day. For the same compound, the LEL (rat [12]; systemic / clinical chemistry / aminopyrine-n-demethylase / aminopyrine-n-demethylase) was 2.5 mg/kg/day, the NEL (rat [12]; [26]) was 0.5 mg/kg/day and the NOAEL (rat [12]; [26]) was 2.5 mg/kg/day. The LOAEL (rat [12]; systemic / in life observation / body weight / body weight gain) was 12.5 mg/kg/day.
